Columns and labels:
Ct-hMLKL (183–471) = biological target: T1, Ct-hMLKL (183–471) (Homo sapiens, UniProt Q8NB16); experiment: SPR binding to Ct-hMLKL; conditions: CM5 chip
T1 construct: Nt-hMLKL (2–154), Nt-mMLKL (1–180), and Ct-hMLKL (183–471) were generated using the pBT7-N-His vector; His (N); made in house; host or cells: E. coli BL21
From the text: (§1) The hMLKL plasmid (RC213152, OriGene, Rockville, MD, USA), and recombinant Wt-hMLKL (ab241453, Abcam) and Wt-mMLKL (MBS1379843, MyBioSource, San Diego, CA, USA) proteins were purchased. Nt-hMLKL (2–154), Nt-mMLKL (1–180), and Ct-hMLKL (183–471) were generated using the pBT7-N-His vector. Nt-hMLKL^C86A, Nt-hMLKL^F148A, -hMLKL^C86A/L89A/D94A, and Nt-hMLKL^R145A/R146A/F148A/M150A were generated using the Site-directed Mutagenesis Kit (EZ004S, Enzynomics, S. Korea). These constructs were subcloned into pBT7-N-His and pET-15b plasmid vectors. E. coli BL21 cells transformed with the cloned expression vectors were cultured in LB medium and supplemented with 100 μg/mL ampicillin until an OD at 600 nm of 0.5–0.6 was reached. The cultures were induced by 1 mM IPTG (367-93-1, Sigma-Aldrich). The cells were lysed and centrifuged. The clear supernatants were subjected to Ni-NTA affinity chromatography (175018169, QIAGEN, Hilden, Germany). Plasmids encoding mMLKL (1–464)–gyrase fusion constructs were kindly provided by Prof. […]
(§2) The interactions of Wt-hMLKL, Wt-mMLKL, Nt-mMLKL, Nt, and Ct-hMLKL proteins with Re-APO or Ox-APO were detected through SPR analysis using Biacore™ T200 (Cytiva, Marlborough, MA, USA). […] Sensorgrams were recorded and analyzed in real-time using the control software in the BIAcore T200 system. All data were analyzed using the BIA evaluation software (Cytiva).

mouse MLKL (mMLKL) = experiment: MLKL oligomerization Western blot in J774A.1 cells; type: cell-based; conditions: J774A.1, TBZ, 20 μM, 8 h
Description: Fig. 2 Effect of redox-sensitive APO on MLKL oligomerization. A Chemical structure of APO. APO undergoes auto-oxidation to form the oxidized form (Ox-APO), while the addition of DTT preserves the reduced form (Re-APO). The red highlights indicate the sites where APO loses hydrogen and electrons during the oxidation process. B Real-time 1D ^1H NMR spectra showing the degree of oxidation of APO. APO was dissolved from its powdered form in DPBS and incubated at 25 °C for 36 h. Real-time 1D ^1H NMR spectra were measured at a 2 h intervals after filtration through a 0.2 μm syringe filter to remove precipitates. […] C MLKL oligomerization is inhibited by APO. THP-1 cells were treated with TBZ and Re-APO or Ox-APO for 8 h. Western blot analysis of WCLs was performed under non-reducing and reducing conditions using the indicated antibodies. Percentage changes of p-MLKL oligomer band relative to GAPDH were shown. The p value for MLKL oligomer band intensity was calculated based on the average intensity of the tetramer and octamer bands. Octa octamer, Tetra tetramer, Mono monomer. Mean ± SEM (n = 3). **p < 0.001, ns not significant, one-way ANOVA. D THP-1 cells were treated with TBZ and Ox-APO or Re-APO for 8 h and then stained with DAPI and MLKL for confocal microscopy. In the intensity graph, green indicates MLKL. The signal intensity of MLKL fluorescence from the plasma membrane to the cytosol was measured using FluoView FV1000 software. Mean ± SEM (n > 100). **p < 0.01, ***p < 0.001, one-way ANOVA. E J774A.1 mouse monocytic cells were treated with TBZ and 20 μM Re-APO or Ox-APO for 8 h. Western blot analysis of WCLs was performed under non-reducing and reducing conditions using the indicated antibodies.
The cells were harvested and lysed in 1× RIPA buffer (R4100-010, GenDEPOT, Katy, TX, USA) containing protease (P3100-001, GenDEPOT) and phosphatase (1862495, Thermo Fisher Scientific) inhibitors. WCLs were then centrifuged at 20,000×g for 30 min at 4 °C and subjected to non-reducing or reducing 8–12% SDS-PAGE gel electrophoresis. The membrane was blocked with 5% non-fat milk in TBS and probed with antibodies. Antibodies to hMLKL (14993S), mMLKL (97705S), phospho-hMLKL (Ser358) (91689S), phospho-mMLKL (Ser345) (37333S), phospho-hRIP1 (Ser166) (65746S), mRIP1 (3493S), phospho-mRIP1 (Ser321) (38662S), phospho-hRIP3 (Ser227) (93654), mRIP3 (95702S), p-mRIP3 (Thr231/Ser232) (91702S), and LDH (2012S) (Cell Signaling Technology, Danvers, MA, USA), and GAPDH (LF-PA0018, Abfrontier, S. Korea), hRIP1 (ab72139, Abcam, Cambridge, UK), hRIP3 (sc-135170, Santa Cruz Biotechnology, Dallas, TX, USA), HMGB1 (ab78923, Abcam), and LAMP1 (ab24170, Abcam) antibodies were used.

[1] = biological target: T2, Nt-hMLKL^R145A/R146A/F148A/M150A (Homo sapiens, UniProt Q8NB16, F148A/M150A/R145A/R146A); experiment: SPR binding to Nt-hMLKL quadruple mutant; conditions: CM5 chip
T2 construct: an N-terminal domain (Nt-hMLKL, amino acids 2–154, MW: 23 kDa) involved in oligomerization; His (N); made in house; host or cells: E. coli BL21
From the text: as §1, §2

T1 sequence (Q8NB16 183-471): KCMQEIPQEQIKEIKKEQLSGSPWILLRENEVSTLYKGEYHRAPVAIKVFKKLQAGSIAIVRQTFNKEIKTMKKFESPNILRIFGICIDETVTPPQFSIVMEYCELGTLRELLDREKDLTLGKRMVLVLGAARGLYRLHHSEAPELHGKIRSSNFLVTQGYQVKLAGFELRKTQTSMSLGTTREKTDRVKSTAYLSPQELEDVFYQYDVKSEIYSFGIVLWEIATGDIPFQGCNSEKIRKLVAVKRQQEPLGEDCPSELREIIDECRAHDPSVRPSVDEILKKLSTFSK
T2 sequence (Q8NB16 2-154 R145A/R146A/F148A/M150A): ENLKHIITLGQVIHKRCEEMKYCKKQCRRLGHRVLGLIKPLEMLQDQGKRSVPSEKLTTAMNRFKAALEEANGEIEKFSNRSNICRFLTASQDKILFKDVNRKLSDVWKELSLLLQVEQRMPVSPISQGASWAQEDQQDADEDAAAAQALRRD

| SMILES | binding in SPR (Ct-hMLKL (183–471)) | formation of mMLKL tetramers and octamers (mouse MLKL (mMLKL)) | phosphorylation of mRIP1, mRIP3 and mMLKL (mouse MLKL (mMLKL)) | binding in SPR [1] |
| --- | --- | --- | --- | --- |
| CN1CCc2cccc3c4c(cc1c23)C=CC(=O)C4=O [Ox-APO] | no detectable binding | strongly prevented | little effect | retained binding |
| CN1CCc2cccc3c2C1Cc1ccc(O)c(O)c1-3 (stereo not shown) [Re-APO] | no detectable binding | strongly prevented | little effect |  |
